Assay: Extraction of amino acid ester from aqueous mineral acid salt solution into 1,2-dichloroethane at constant pH (Table 1)
Experimental: 0.1 mole of a mineral acid salt of an amino acid ester, shown in Table 1 was dissolved or suspended in 30 g of water. Thereto was added 60 g of 1,2-dichloroethane. While the mixture was kept at 20°-25° C. and stirred, a 20% water solution of sodium hydroxide was dropwise added thereto in 0.5 hour, and then stirring and extraction were carried out for 0.5 hour while the pH of the aqueous layer was kept at a constant level in the range of 6.5-8.5. The organic layer was separated from the aqueous layer. Then, there were measured percent extraction of fed amino acid ester in organic layer, percent remaining of said ester in aqueous layer, and percent hydrolysis of said ester in aqueous layer (the hydrolyzed ester remains in the aqueous layer as an amino acid).

[1] = pH 6.5, 20-25 °C, 1,2-dichloroethane
[2] = pH 7.5, 20-25 °C, 1,2-dichloroethane
[3] = pH 8.5, 20-25 °C, 1,2-dichloroethane

Molecule	Ester in aqueous layer, percent hydrolysis [1] [%]	Ester in aqueous layer, percent remaining [1] [%]	Percent extraction of ester in organic layer [1] [%]	Ester in aqueous layer, percent hydrolysis [2] [%]	Ester in aqueous layer, percent remaining [2] [%]	Percent extraction of ester in organic layer [2] [%]	Ester in aqueous layer, percent hydrolysis [3] [%]	Ester in aqueous layer, percent remaining [3] [%]	Percent extraction of ester in organic layer [3] [%]	Ester in aqueous layer, percent remaining (pH 6.5) [%]	Ester in aqueous layer, percent remaining (pH 7.5) [%]	Ester in aqueous layer, percent remaining (pH 8.5) [%]	Ester in aqueous layer, percent hydrolysis (water/1,2-dichloroethane, pH 6.5) [%]	Ester in aqueous layer, percent hydrolysis (water/1,2-dichloroethane, pH 7.5) [%]	Ester in aqueous layer, percent hydrolysis (water/1,2-dichloroethane, pH 8.5) [%]
COC(=O)[C@@H](N)CCCCN.Cl [Methyl L-lysinate hydrochloride]	0	18	82	0	9	91	3	3	94						
CCOC(=O)[C@@H](N)Cc1ccccc1.Cl [Ethyl L-phenylalaninate hydrochloride]	0	8	92	0	2	98	3	1	96						
Cl.N[C@@H](Cc1ccccc1)C(=O)OCc1ccccc1 [Benzyl L-phenylalaninate hydrochloride]	0	6	94	0	1	99		1	97						
COC(=O)CCCN.Cl [Methyl γ-aminobutyrate hydrochloride]	0	11	89	0	4	96	3	2	95						
Methyl L-aspartate hydrochloride			88			96			96	12	3	1	0	1	3
COC(=O)[C@@H](N)CO.Cl [Methyl L-serinate hydrochloride]	0	14	86	0	5	95	4	2	94						
CCOC(=O)c1ccccc1N.Cl [Ethyl o-aminobenzoate hydrochloride]	0	6	94	1	2	97	3	1	96						
Cl.N[C@@H](Cc1ccccc1)C(=O)Oc1ccccc1 [Phenyl L-phenylalaninate hydrochloride]	0	6	94	2	1	97	7	1	92						

Source: patent US5374765A, “Method for extracting an amino acid ester from a hydrous solution of a mineral acid salt thereof” (priority 1990, dated 1994)
